Measured values from US20170007615A1, “Antibacterial Compounds” (priority 2014, published 2017).
≈ marks a conversion by molar mass, not a printed value. Where two headings read alike, the source gives them in different places.

Tests used:
[1] = test system: B. cepacia (ATCC 25416); assay: Antibacterial activity (MIC), alone and with colistin; assay type: cell-based, Burkholderia cepacia
[2] = test system: E. coli drug resistant clinical isolates; assay: Antibacterial activity (MIC) against drug resistant clinical isolates, alone and with PMBN; assay type: cell-based; conditions: for MIC: Escherichia coli, read-out: MIC Compound alone
[3] = test system: P. aeruginosa drug resistant clinical isolates; assay: as above; assay type: cell-based; conditions: for MIC: Pseudomonas aeruginosa, read-out: MIC Compound alone
[4] = test system: A. baumannii drug resistant clinical isolates; assay: as above; assay type: cell-based; conditions: for MIC: Acinetobacter baumannii, read-out: MIC Compound alone
[5] = test system: E. cloaceae drug resistant clinical isolates; assay: as above; assay type: cell-based; conditions: for MIC: read-out: MIC Compound alone
[6] = test system: P. aeruginosa (MMX 1497) colistin-resistant strain; assay: Antibacterial activity (MIC) against colistin-resistant strains, alone and with colistin; assay type: cell-based
[7] = test system: K. pneumonia colistin-resistant strains; assay: microbe, parasite or virus in culture; assay type: cell-based; conditions: for MIC: Klebsiella pneumoniae
[8] = test system: E. coli colistin-resistant strains; assay: microbe, parasite or virus in culture; assay type: cell-based; conditions: for MIC: Escherichia coli
[9] = test system: A. baumannii colistin-resistant strains; assay: microbe, parasite or virus in culture; assay type: cell-based; conditions: for MIC: Acinetobacter baumannii
[10] = test system: E. coli (ATCC 25922)
[11] = test system: A. baumannii (ATCC 19606); conditions: Table 4
[12] = test system: P. aeruginosa (ATCC 27853); conditions: Table 5
[13] = test system: E. cloaceae (ATCC 13047)
[14] = test system: F. philomiragia (ATCC 25015); conditions: Table 9
[15] = test system: E. coli (ATCC 25922); assay: microbe, parasite or virus in culture; conditions: Escherichia coli
[16] = test system: A. baumannii (ATCC 19606); assay: microbe, parasite or virus in culture; conditions: Acinetobacter baumannii, ATCC19606, read-out: MIC Compound alone
[17] = test system: P. aeruginosa (ATCC 27853); assay: microbe, parasite or virus in culture; conditions: Pseudomonas aeruginosa, ATCC27853, read-out: MIC Compound alone
[18] = test system: E. cloaceae (ATCC 13047); assay: microbe, parasite or virus in culture; conditions: Enterobacter cloacae, ATCC13047, read-out: MIC Compound alone
[19] = test system: F. philomiragia (ATCC 25015); assay: microbe, parasite or virus in culture; conditions: Francisella philomiragia, ATCC25015, read-out: MIC Compound alone

CCNC(=O)Nc1nc2cc(-c3cnc([C@H](C)O)nc3)cc(-c3ccccn3)c2s1 [Example 23 (WO2013/138860), 1-ethyl-3-[5-[2-[(1S)-1-hydroxyethyl]pyrimidin-5-yl]-7-(2-pyridyl)-1,3-benzothiazol-2-yl]urea]
MIC ([1]; Burkholderia cepacia, ATCC25416, read-out: MIC Compound alone): > 64 µg/mL | MIC of Compound (μg/ml) in the presence of colistin (2 μg/ml) ([1]; Table 8, colistin non-inhibitory): 8 µg/mL | MIC of Compound (μg/ml) in the presence of PMBN (128 μg/ml) ([2]; E. coli (MMX 1312)): ≦0.008 μg/ml | MIC of Compound (μg/ml) in the presence of PMBN (128 μg/ml) ([2]; E. coli (MMX 2232)): ≦0.008 μg/ml | MIC ([2]; E. coli (MMX 1312)): > 64 µg/mL | MIC ([2]; E. coli (MMX 2232)): > 64 µg/mL | MIC of Compound (μg/ml) in the presence of PMBN (128 μg/ml) ([3]; P. aeruginosa (MMX3007)): 0.25 µg/mL | MIC of Compound (μg/ml) in the presence of PMBN (128 μg/ml) ([3]; P. aeruginosa (MMX3022)): 0.25 µg/mL | MIC of Compound (μg/ml) in the presence of PMBN (128 μg/ml) ([3]; P. aeruginosa (MMX3025)): 0.12 µg/mL | MIC of Compound (μg/ml) in the presence of PMBN (128 μg/ml) ([3]; P. aeruginosa (NCTC13437)): 0.25 µg/mL | MIC ([3]; NCTC13437, P. aeruginosa (NCTC13437)): > 64 µg/mL | MIC ([3]; P. aeruginosa (MMX3007)): > 64 µg/mL | MIC ([3]; P. aeruginosa (MMX3022)): > 64 µg/mL | MIC ([3]; P. aeruginosa (MMX3025)): > 64 µg/mL | MIC of Compound (μg/ml) in the presence of PMBN (128 μg/ml) ([4]; A. baumannii (MMX 4454)): 0.5 µg/mL | MIC of Compound (μg/ml) in the presence of PMBN (128 μg/ml) ([4]; A. baumannii (MMX 6331)): 0.25 µg/mL | MIC ([4]; A. baumannii (MMX 4454)): 2 µg/mL (≈ 4.76 µM) | MIC ([4]; A. baumannii (MMX 6331)): > 64 µg/mL | MIC of Compound (μg/ml) in the presence of PMBN (128 μg/ml) ([5]; E. cloaceae (MMX 6087)): 2 µg/mL | MIC ([5]; E. cloaceae (MMX 6087)): > 64 µg/mL | MIC of Compound (μg/ml) in the presence of PMBN (128 μg/ml) ([5]; E. cloaceae (MMX 6093)): 0.5 µg/mL | MIC ([5]; E. cloaceae (MMX 6093)): > 16 µg/mL | MIC of Compound (μg/ml) in the presence of PMBN (128 μg/ml) ([5]; E. cloaceae (MMX 6095)): 8 µg/mL | MIC ([5]; E. cloaceae (MMX 6095)): > 64 µg/mL | MIC of Compound (μg/ml) in the presence of PMBN (128 μg/ml) ([5]; E. cloaceae (MMX 6304)): 1 µg/mL | MIC ([5]; E. cloaceae (MMX 6304)): > 16 µg/mL | MIC of Compound (μg/ml) in the presence of colistin (2 μg/ml) [6]: 4 µg/mL | MIC ([6]; Pseudomonas aeruginosa, read-out: MIC Compound alone): > 64 µg/mL | MIC of Compound (μg/ml) in the presence of colistin (2 μg/ml) ([7]; K. pneumonia colistin-resistant strain #1): 0.25 µg/mL | MIC of Compound (μg/ml) in the presence of colistin (2 μg/ml) ([7]; K. pneumonia colistin-resistant strain #2): 0.25 µg/mL | MIC of Compound (μg/ml) in the presence of colistin (2 μg/ml) ([7]; K. pneumonia colistin-resistant strain #3): 0.12 µg/mL | MIC ([7]; read-out: MIC Compound alone, K. pneumonia colistin-resistant strain #1): 1 µg/mL (≈ 2.38 µM) | MIC ([7]; read-out: MIC Compound alone, K. pneumonia colistin-resistant strain #2): 1 µg/mL (≈ 2.38 µM) | MIC ([7]; read-out: MIC Compound alone, K. pneumonia colistin-resistant strain #3): 2 µg/mL (≈ 4.76 µM) | MIC of Compound (μg/ml) in the presence of colistin (2 μg/ml) ([8]; E. coli colistin-resistant strain #1): 2 µg/mL | MIC of Compound (μg/ml) in the presence of colistin (2 μg/ml) ([8]; E. coli colistin-resistant strain #2): 1 µg/mL | MIC of Compound (μg/ml) in the presence of colistin (2 μg/ml) ([8]; E. coli colistin-resistant strain #3): 1 µg/mL | MIC of Compound (μg/ml) in the presence of colistin (2 μg/ml) ([8]; E. coli colistin-resistant strain #26): 1 µg/mL | MIC of Compound (μg/ml) in the presence of colistin (2 μg/ml) ([8]; E. coli colistin-resistant strain #43): 1 µg/mL | MIC ([8]; read-out: MIC Compound alone, E. coli colistin-resistant strain #1): 4 µg/mL (≈ 9.51 µM) | MIC ([8]; read-out: MIC Compound alone, E. coli colistin-resistant strain #2): 4 µg/mL (≈ 9.51 µM) | MIC ([8]; read-out: MIC Compound alone, E. coli colistin-resistant strain #3): 8 µg/mL (≈ 19 µM) | MIC ([8]; read-out: MIC Compound alone, E. coli colistin-resistant strain #26): 8 µg/mL (≈ 19 µM) | MIC ([8]; read-out: MIC Compound alone, E. coli colistin-resistant strain #43): 4 µg/mL (≈ 9.51 µM) | MIC of Compound (μg/ml) in the presence of colistin (2 μg/ml) ([9]; A. baumannii colistin-resistant strain #1): 0.015 µg/mL | MIC of Compound (μg/ml) in the presence of colistin (2 μg/ml) ([9]; A. baumannii colistin-resistant strain #2): 0.03 µg/mL | MIC of Compound (μg/ml) in the presence of colistin (2 μg/ml) ([9]; A. baumannii colistin-resistant strain #3): <=0.008 μg/ml | MIC ([9]; read-out: MIC Compound alone, A. baumannii colistin-resistant strain #1): ≤ 0.03 µg/mL | MIC ([9]; read-out: MIC Compound alone, A. baumannii colistin-resistant strain #2): 4 µg/mL (≈ 9.51 µM) | MIC ([9]; read-out: MIC Compound alone, A. baumannii colistin-resistant strain #3): ≤ 0.03 µg/mL | MIC of Compound (μg/ml) in the presence of PMBN (128 μg/ml) ([10]; Table 1, (b) No effect): 0.06 µg/mL | MIC of Compound (μg/ml) in the presence of Colistin (1 μg/ml) ([10]; Table 2, colistin sub-inhibitory): 1 µg/mL | MIC of Compound (μg/ml) in the presence of PMB (0.5 μg/ml) ([10]; Table 3, PMB sub-inhibitory): 1 µg/mL | MIC of Compound (μg/ml) in the presence of PMBN (32 μg/ml) ([10]; Table 12, (b) No significant effect): 0.12 µg/mL | MIC of Compound (μg/ml) in the presence of PMBN (128 μg/ml) [11]: 0.25 µg/mL | MIC of Compound (μg/ml) in the presence of PMBN (128 μg/ml) [12]: <=0.008 μg/ml | MIC of Compound (μg/ml) in the presence of PMBN (128 μg/ml) ([13]; Table 6): 0.5 µg/mL | MIC Compound alone ([13]; Table 7): >64 µg/mL | MIC of Compound (μg/ml) in the presence of colistin (2 μg/ml) ([13]; Table 7, colistin non-inhibitory): <=0.12 μg/ml | MIC of Compound (μg/ml) in the presence of PMBN (32 μg/ml) [14]: 2 µg/mL | MIC ([15]; ATCC25922, read-out: MIC Compound alone, Table 1): 4 µg/mL (≈ 9.51 µM) | MIC ([15]; ATCC25922, read-out: MIC Compound alone, Table 2): 4 µg/mL (≈ 9.51 µM) | MIC ([15]; ATCC25922, read-out: MIC Compound alone, Table 3): 4 µg/mL (≈ 9.51 µM) | MIC ([15]; ATCC25922, read-out: MIC Compound alone, Table 12): > 2 µg/mL | MIC [16]: 4 µg/mL (≈ 9.51 µM) | MIC [17]: > 64 µg/mL | MIC [18]: > 64 µg/mL | MIC [19]: > 16 µg/mL
